Test results from patent US9090593B2, “Bicyclic compounds as Pim inhibitors” (AMGEN INC., priority 2010, dated 2015).

Columns and labels:
[1] = molecular target: T1, full length recombinant Pim-2 protein (Homo sapiens, UniProt Q9P1W9); assay: Pim-2 enzyme assay (HTRF, phosphorylation of biotinylated-BAD (S112) peptide); format: biochemical; details: read-out: Pim2_IC50
T1 construct: by full length recombinant Pim-1, Pim-2, or Pim-3 protein; hexahistidine tag followed by a thrombin cleavage site (N); made in house; host or cells: Sf9 (baculovirus) or E. coli (pET28)
Description: (§1) These cDNAs were used as templates in PCR reactions to produce full-length DNA clones of the PIMs. […] PCR products were digested with […] and EcoRI for Pim-1 and BamHI and EcoRI for Pim-2 and ligated into a modified baculovirus transfer vector (pFastBac1) cleaved with BamHI and EcoRI. For bacterial expression, the same cleaved PCR products encoding Pim-1 or Pim-2 were ligated into a modified E. coli expression vector pET28(a) cleaved with BamHI and EcoRI Amino-terminal hexahistidine tags followed by a thrombin cleavage site were previously added to the vectors using standard methods of molecular biology. Recombinant baculoviruses expressing Pim-1 or Pim-2 were made using standard methods (Fastbac manual, Invitrogen, Carlsbad, Calif.). Infection of Sf9 cells was done at an m.o.i. of greater than 5 for 24-48 h. Cells were harvested by centrifugation and frozen at −80 C. For E. coli expression, cells carrying pET28-His6-Th-Pim-1 or pET28-His6-Th-Pim-2 were picked from a single colony and grown o/n in LB media. The o/n culture was used to inoculate a 2 liter flask with 500 mL media. This was grown o/n and used to inoculate 15-20 liters of Terrific Broth in a New Brunswick Scientific fermentor. The E. coli were grown at 37° C. to and OD600>1.6. The temperature was dropped to 18° C. and o/n expression was induced with 0.5 mM IPTG. Cells were harvested by centrifugation and frozen at −80° C.
(§2) This step was repeated 3× and the resin was transferred to a 2.5 cm glass column. Ten column volumes of wash buffer (0.05 M HEPES, pH 8.0, 0.1 M NaCl, 0.01 M 2-mercaptoethanol, 10% (w/v) glycerol) were applied to the resin followed by 10 column volumes of elution buffer (0.05 M HEPES, pH 8.0, 0.25 M NaCl, 0.01 M 2-mercaptoethanol, 10% (w/v) glycerol, 0.1 M imidazole). Fractions were analyzed by SDS-PAGE and those containing the protein of interest were pooled and concentrated. The concentrated protein was applied to an Amersham Superdex 75 (XK 26/60) column equilibrated in 0.025 M Tris-HCl, pH 7.5, 0.1 M NaCl, 0.01 M 2-mercaptoethanol, 10% (w/v) glycerol. […] Fractions containing the monomeric protein of interest were pooled, concentrated to ˜2 mg/mL, and stored at −80° C.
(§3) The phosphorylation of biotinylated-BAD (S112) peptide by full length recombinant Pim-1, Pim-2, or Pim-3 protein was detected with streptavidin:Allophycocyanin (APC) conjugate and a europium (Eu) labeled antibody directed against phosphorylated-BAD (S112). […] The fluorescence is directly proportional to the amount of phosphorylated BAD peptide present in the reaction.
(§4) A reference compound was included on each assay plate in order to validate that plate; on one plate of every assay run, two additional reference compounds were included.
(§5) The final buffer conditions were as follows: 60 mM Hepes, pH 7.0, 0.05% BSA, 2 mM DTT. […] The reaction was stopped by the addition of 3 mM EDTA, and fluorescence was measured by an HTRF® Rubystar microplate reader. For each plate, percent of control (POC) values were calculated for each well. Values for the IC50 IP were estimated using a standard 4-parameter logistic model.

[2] = molecular target: T2, full length recombinant Pim-1 protein (Homo sapiens, UniProt P11309); assay: Pim-1 enzyme assay (HTRF, phosphorylation of biotinylated-BAD (S112) peptide); format: biochemical; details: read-out: Pim_1_IC50
T2 construct: by full length recombinant Pim-1, Pim-2, or Pim-3 protein; hexahistidine tag followed by a thrombin cleavage site (N); made in house; host or cells: Sf9 (baculovirus) or E. coli (pET28)
Description: as §1, §2, §3, §4, §5

T2 sequence (P11309 whole entry): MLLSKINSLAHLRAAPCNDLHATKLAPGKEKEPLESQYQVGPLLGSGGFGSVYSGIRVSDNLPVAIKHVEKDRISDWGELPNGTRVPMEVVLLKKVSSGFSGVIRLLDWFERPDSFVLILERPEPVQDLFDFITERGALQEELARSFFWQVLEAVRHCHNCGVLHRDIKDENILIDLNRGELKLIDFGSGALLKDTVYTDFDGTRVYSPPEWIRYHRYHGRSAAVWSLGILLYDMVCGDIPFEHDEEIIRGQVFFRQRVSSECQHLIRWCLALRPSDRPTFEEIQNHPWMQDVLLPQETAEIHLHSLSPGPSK
T1 sequence (Q9P1W9 whole entry): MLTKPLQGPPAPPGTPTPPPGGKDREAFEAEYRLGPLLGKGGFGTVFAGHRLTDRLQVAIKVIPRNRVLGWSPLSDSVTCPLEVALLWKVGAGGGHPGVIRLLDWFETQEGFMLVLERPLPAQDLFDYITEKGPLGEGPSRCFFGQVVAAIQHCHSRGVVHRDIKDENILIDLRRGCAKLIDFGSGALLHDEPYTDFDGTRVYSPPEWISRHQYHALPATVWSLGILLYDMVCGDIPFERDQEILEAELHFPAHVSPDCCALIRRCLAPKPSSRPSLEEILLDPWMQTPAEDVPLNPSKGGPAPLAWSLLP

Row | IC50 [1] [nM] | IC50 [2] [nM] | SMILES
1 | 58 | 30 | C[C@@H]1CN(c2ccc3[nH]nc(-c4cncc(O[C@H]5CNCCC56CC6)n4)c3c2)CCO1 [Example 401]
2 | 39 | 30 | C[C@H]1COCCN1c1ccc2[nH]nc(-c3cncc(O[C@H]4CNCCC45CC5)n3)c2c1 [Example 402]
3 | 58 | 70 | C[C@@H]1COCCN1c1ccc2[nH]nc(-c3cncc(O[C@H]4CNCCC45CC5)n3)c2c1 [Example 403]
4 | 447 | 159 | O=C1COCCN1c1ccc2[nH]nc(-c3cncc(O[C@H]4CNCCC45CC5)n3)c2c1 [Example 405]
5 | 82 | 22 | Brc1ccc2[nH]nc(-c3cncc(O[C@H]4CNCCC45CC5)n3)c2c1 [Example 422]
6 | 629 | 322 | Oc1cncc(-c2n[nH]c3ccc(-c4ccccc4F)cc23)n1 [Example 435]
7 | 43 | 20 | CN1CCC(Oc2cncc(-c3n[nH]c4ccc(-c5c(F)cccc5F)cc34)n2)CC1 [Example 445]
8 | 137 | 105 | O[C@@H]1CN(c2cncc(-c3n[nH]c4ccc(-c5c(F)cccc5F)cc34)n2)C[C@@H]1O [Example 448]
9 | 639 | 159 | OC1CN(c2cncc(-c3n[nH]c4ccc(-c5c(F)cccc5F)cc34)n2)CC1O (centres unmarked) [Example 449]
10 | 453 | 159 | OC1CN(c2cncc(-c3n[nH]c4ccc(-c5c(F)cccc5F)cc34)n2)CC1O (centres unmarked) [Example 450]
11 | 17 | 4 | Nc1ncc(-c2ccc3[nH]nc(-c4cncc(O[C@H]5CNCCC56CC6)n4)c3c2)cn1 [Example 464]
12 | 329 | 171 | CNC(=O)c1ccc2[nH]nc(-c3cncc(NC4CCNCC4)n3)c2c1 [Example 471]
13 | 617 | 112 | COc1cc(N2CCC(N)CC2)nc(-c2n[nH]c3ccc(-c4c(F)cccc4F)cc23)n1 [Example 472]
14 | 192 | 30 | CNC(=O)c1ccc2[nH]nc(-c3cncc(N[C@@H]4CCCNC4)n3)c2c1 [Example 475]
15 | > 1000 | 180 | CNC(=O)c1ccc2[nH]nc(-c3cncc(O[C@@H]4CCCNC4)n3)c2c1 [Example 478]
16 | 77 | 112 | COc1cc(N[C@@H]2CCCNC2)nc(-c2c[nH]c3ccc(-c4c(F)cccc4F)cc23)n1 [Example 479]
17 | 203 | 106 | CNC(=O)c1ccc2[nH]nc(-c3cncc(N4CCC(N)CC4)n3)c2c1 [Example 480]
18 | 719 | 444 | CN(C)C(=O)c1ccc2[nH]nc(-c3ccnc(N[C@@H]4CCCNC4)n3)c2c1 [Example 481]
19 | > 1000 | 374 | CN(C)C(=O)c1ccc2[nH]nc(-c3cncc(N4CCC(N)CC4)n3)c2c1 [Example 484]
20 | 26 | 26 | COC(=O)c1ccc2[nH]nc(-c3nccc(NC4CCNCC4)n3)c2c1 [Example 485]
21 | 543 | 72 | COC(=O)c1ccc2[nH]nc(-c3nccc(N[C@@H]4CCCNC4)n3)c2c1 [Example 486]
22 | 217 | 159 | CN(C)C(=O)c1ccc2[nH]nc(-c3cncc(NC4CCNCC4)n3)c2c1 [Example 487]
23 | 55 | 46 | COC(=O)c1ccc2[nH]nc(-c3nccc(N4CCC(N)CC4)n3)c2c1 [Example 488]
24 | 109 | 46 | CN(C)c1nc(-c2c[nH]c3ccc(-c4c(F)cccc4F)cc23)cc(=O)[nH]1 [Example 492]
25 | 653 | 834 | COc1cc(-c2c[nH]c3ccc(-c4c(F)cccc4F)cc23)nc(O[C@@H]2CCCNC2)n1 [Example 493]
26 | > 1000 | 834 | CN(C)C(=O)c1ccc2[nH]nc(-c3cncc(N[C@@H]4CCCNC4)n3)c2c1 [Example 494]

Row | IC50 [1] [nM] | IC50 [2] [nM] | SMILES
27 | > 1000 | 159 | CN(C)c1cc(=O)[nH]c(-c2c[nH]c3ccc(-c4c(F)cccc4F)cc23)n1 [Example 496]
28 | 207 | 46 | COC(=O)c1ccc2[nH]nc(-c3ccnc(O[C@@H]4CCCNC4)n3)c2c1 [Example 497]
29 | 726 | 70 | COC(=O)c1ccc2[nH]nc(-c3nccc(O[C@@H]4CCCNC4)n3)c2c1 [Example 498]
30 | > 1000 | 364 | CC(C)Nc1cc(=O)[nH]c(-c2c[nH]c3ccc(-c4c(F)cccc4F)cc23)n1 [Example 499]
31 | 19 | 9 | CC(C)Nc1nc(-c2c[nH]c3ccc(-c4c(F)cccc4F)cc23)cc(=O)[nH]1 [Example 500]
32 | 812 | 91 | CC1CCCCN1c1nc(-c2ccc3[nH]cc(-c4cncc(O[C@@H]5CCCNC5)n4)c3c2)cs1 (some centres unmarked) [Example 501]
33 | 424 | 20 | c1ncc(-c2ccc3[nH]cc(-c4cncc(O[C@@H]5CCCNC5)n4)c3c2)cc1NC1CC1 [Example 502]
34 | 225 | 29 | Clc1cncc(-c2ccc3[nH]cc(-c4cncc(O[C@@H]5CCCNC5)n4)c3c2)c1 [Example 505]
35 | 480 | 98 | CC(C)Oc1cncc(-c2ccc3[nH]cc(-c4nnc(N[C@H]5CCNC5)o4)c3c2)n1 [Example 511]
36 | 93 | 47 | CC(C)Oc1cncc(-c2ccc3[nH]cc(-c4nnc(N[C@@H]5CCNC5)o4)c3c2)n1 [Example 512]
37 | 218 | 48 | CC(C)Oc1cncc(-c2ccc3[nH]cc(-c4nnc(NC5CCNCC5)o4)c3c2)n1 [Example 513]
38 | 194 | 52 | CC(C)Oc1cncc(-c2ccc3[nH]cc(-c4nnc(N[C@H]5CCCNC5)o4)c3c2)n1 [Example 514]
39 | 527 | 52 | CC(C)Oc1cncc(-c2ccc3[nH]cc(-c4nnc(N5CCCC5)o4)c3c2)n1 [Example 520]
40 | > 1000 | 425 | c1cnc(-c2c[nH]c3ccc(-c4cncc(C5CC5)n4)cc23)cn1 [Example 521]
41 | 446 | 90 | CC(C)Nc1nnc(-c2c[nH]c3ccc(-c4cncc(OC(C)C)n4)cc23)o1 [Example 522]
42 | > 1000 | 359 | CC(C)Oc1cncc(-c2ccc3[nH]cc(-c4nnc(Nc5ccccc5)o4)c3c2)n1 [Example 523]
43 | 91 | 34 | CN(C)c1nc(-c2n[nH]c3ccc(-c4c(F)cccc4F)cc23)cc(=O)[nH]1 [Example 526]
44 | 565 | 834 | O=c1cc(-c2n[nH]c3ccc(-c4c(F)cccc4F)cc23)nc[nH]1 [Example 530]
45 | 182 | 20 | COC(=O)c1ccc2[nH]cc(-c3nccc(N[C@@H]4CCCNC4)n3)c2c1 [Example 531]
46 | 56 | 4 | COC(=O)c1ccc2[nH]cc(-c3cncc(N[C@@H]4CCCNC4)n3)c2c1 [Example 532]
47 | 237 | 105 | COC(=O)c1ccc2[nH]cc(-c3ccnc(N[C@@H]4CCCNC4)n3)c2c1 [Example 533]
48 | 262 | 70 | CCCCc1nc(-c2n[nH]c3ccc(-c4c(F)cccc4F)cc23)cc(=O)[nH]1 [Example 535]
49 | 208 | 30 | N#Cc1ccc2[nH]cc(-c3cncc(N[C@@H]4CCCNC4)n3)c2c1 [Example 536]
50 | > 1000 | 241 | O=C(O)c1ccc2[nH]cc(-c3cncc(N[C@@H]4CCCNC4)n3)c2c1 [Example 538]
51 | > 1000 | 834 | O=C(O)c1ccc2[nH]cc(-c3nccc(N[C@@H]4CCCNC4)n3)c2c1 [Example 539]
52 | 396 | 70 | N#Cc1ccc2[nH]nc(-c3cncc(N[C@@H]4CCCNC4)n3)c2c1 [Example 540]
